Source: ChEMBL document CHEMBL1126625, “7-Azetidinylquinolones as antibacterial agents. Synthesis and structure-activity relationships” (J Med Chem, 1993)
≈ marks a conversion by molar mass, not a printed value.

Legend:
Assay type in all cases: functional
Enterobacter cloacae = experiment: Minimum inhibitory concentration (MIC)preventing growth of Enterobacter cloacae
Staphylococcus aureus = experiment: Minimum inhibitory concentration (MIC) preventing growth of […]
Proteus vulgaris = experiment: Minimum inhibitory concentration (MIC) preventing growth of Proteus vulgaris
Klebsiella pneumoniae = experiment: Minimum inhibitory concentration (MIC)preventing growth of Klebsiella pneumoniae
Pseudomonas aeruginosa = experiment: Minimum inhibitory concentration (MIC)preventing growth of Pseudomonas aeruginosa
Bacillus cereus = experiment: Minimum inhibitory concentration (MIC) preventing growth of Bacillus cereus
Morganella morganii = experiment: Minimum inhibitory concentration (MIC) preventing growth of Morganella morganii
Bacillus subtilis = experiment: Minimum inhibitory concentration (MIC) preventing growth of Bacillus subtilis
[1] = test system: Staphylococcus epidermidis; experiment: Minimum inhibitory concentration (MIC) preventing growth of Staphylococcus epidermidis
Enterococcus faecalis = experiment: Minimum inhibitory concentration (MIC) preventing growth of Streptococcus faecalis ATCC 10541
Escherichia coli = experiment: Minimum inhibitory concentration (MIC)preventing growth of Escherichia coli

Compound | MIC (Enterobacter cloacae) | MIC (Staphylococcus aureus) | MIC (Proteus vulgaris) | MIC (Klebsiella pneumoniae) | MIC (Pseudomonas aeruginosa) | MIC (Bacillus cereus) | MIC (Morganella morganii) | MIC (Bacillus subtilis) | MIC [1] | MIC (Enterococcus faecalis) | MIC (Escherichia coli)
CC1(n2cccc2)CN(c2c(F)cc3c(=O)c(C(=O)O)cn(C4CC4)c3c2F)C1 | 2 µg/mL (≈ 5.01 µM) | 0.25 µg/mL (≈ 0.626 µM) | 1 µg/mL (≈ 2.5 µM) | 0.25 µg/mL (≈ 0.626 µM) | 8 µg/mL (≈ 20 µM) | 0.25 µg/mL (≈ 0.626 µM) | 1 µg/mL (≈ 2.5 µM) | 0.015 µg/mL (≈ 0.0376 µM) | 0.25 µg/mL (≈ 0.626 µM) | 2 µg/mL (≈ 5.01 µM) | 1 µg/mL (≈ 2.5 µM)
CC1(O)CN(c2c(F)cc3c(=O)c(C(=O)O)cn(C4CC4)c3c2F)C1 | 0.5 µg/mL (≈ 1.43 µM) | 0.25 µg/mL (≈ 0.714 µM) | 0.5 µg/mL (≈ 1.43 µM) | 0.5 µg/mL (≈ 1.43 µM) | 4 µg/mL (≈ 11.4 µM) | 0.25 µg/mL (≈ 0.714 µM) | 0.5 µg/mL (≈ 1.43 µM) | 0.015 µg/mL (≈ 0.0428 µM) | 0.25 µg/mL (≈ 0.714 µM) | 1 µg/mL (≈ 2.85 µM) | 0.5 µg/mL (≈ 1.43 µM)
CC1(N)CN(c2c(F)cc3c(=O)c(C(=O)O)cn(CCF)c3c2Cl)C1 | 0.015 µg/mL (≈ 0.0403 µM) | 0.25 µg/mL (≈ 0.672 µM) | 1 µg/mL (≈ 2.69 µM) | 0.015 µg/mL (≈ 0.0403 µM) | 1 µg/mL (≈ 2.69 µM) | 0.5 µg/mL (≈ 1.34 µM) | 0.015 µg/mL (≈ 0.0403 µM) | 0.06 µg/mL (≈ 0.161 µM) | 0.12 µg/mL (≈ 0.323 µM) | 1 µg/mL (≈ 2.69 µM) | 0.06 µg/mL (≈ 0.161 µM)
CCn1cc(C(=O)O)c(=O)c2cc(F)c(N3CC(C)(N)C3)c(Cl)c21 | 0.06 µg/mL (≈ 0.17 µM) | 0.25 µg/mL (≈ 0.707 µM) | 0.5 µg/mL (≈ 1.41 µM) | 0.03 µg/mL (≈ 0.0848 µM) | 1 µg/mL (≈ 2.83 µM) | 0.25 µg/mL (≈ 0.707 µM) | 0.06 µg/mL (≈ 0.17 µM) | 0.06 µg/mL (≈ 0.17 µM) | 0.25 µg/mL (≈ 0.707 µM) | 1 µg/mL (≈ 2.83 µM) | 0.03 µg/mL (≈ 0.0848 µM)
N#CC1CN(c2c(F)cc3c(=O)c(C(=O)O)cn(C4CC4)c3c2F)C1 | 1 µg/mL (≈ 2.9 µM) | 1 µg/mL (≈ 2.9 µM) | 1 µg/mL (≈ 2.9 µM) | 0.5 µg/mL (≈ 1.45 µM) | 8 µg/mL (≈ 23.2 µM) | 0.5 µg/mL (≈ 1.45 µM) | 1 µg/mL (≈ 2.9 µM) | 0.06 µg/mL (≈ 0.174 µM) | 0.5 µg/mL (≈ 1.45 µM) | 4 µg/mL (≈ 11.6 µM) | 1 µg/mL (≈ 2.9 µM)
CNC1(C)CN(c2cc3c(cc2F)c(=O)c2c(=O)[nH]sc2n3C2CC2)C1 | 0.06 µg/mL (≈ 0.16 µM) | 0.06 µg/mL (≈ 0.16 µM) | 0.12 µg/mL (≈ 0.32 µM) | 0.03 µg/mL (≈ 0.0801 µM) | 0.5 µg/mL (≈ 1.34 µM) | 0.06 µg/mL (≈ 0.16 µM) | 0.06 µg/mL (≈ 0.16 µM) | 0.03 µg/mL (≈ 0.0801 µM) | 0.06 µg/mL (≈ 0.16 µM) | 0.06 µg/mL (≈ 0.16 µM) | 0.03 µg/mL (≈ 0.0801 µM)
CC(=O)OC1CN(c2c(F)cc3c(=O)c(C(=O)O)cn(C4CC4)c3c2F)C1 | 0.12 µg/mL (≈ 0.317 µM) | 0.12 µg/mL (≈ 0.317 µM) | 0.12 µg/mL (≈ 0.317 µM) | 0.015 µg/mL (≈ 0.0396 µM) | 2 µg/mL (≈ 5.29 µM) | 0.12 µg/mL (≈ 0.317 µM) | 0.25 µg/mL (≈ 0.661 µM) | 0.015 µg/mL (≈ 0.0396 µM) | 0.12 µg/mL (≈ 0.317 µM) | 2 µg/mL (≈ 5.29 µM) | 0.12 µg/mL (≈ 0.317 µM)
CC1(N)CN(c2c(F)cc3c(=O)c(C(=O)O)cn(C(C)(C)C)c3c2F)C1 | 0.25 µg/mL (≈ 0.684 µM) | 0.5 µg/mL (≈ 1.37 µM) | 1 µg/mL (≈ 2.74 µM) | 0.06 µg/mL (≈ 0.164 µM) | 2 µg/mL (≈ 5.47 µM) | 0.5 µg/mL (≈ 1.37 µM) | 0.5 µg/mL (≈ 1.37 µM) | 0.12 µg/mL (≈ 0.328 µM) | 0.5 µg/mL (≈ 1.37 µM) | 2 µg/mL (≈ 5.47 µM) | 0.25 µg/mL (≈ 0.684 µM)
O=C(O)c1cn(C2CC2)c2c(F)c(N3CC(C(=O)O)C3)c(F)cc2c1=O | > 16 µg/mL | > 16 µg/mL | > 16 µg/mL | > 16 µg/mL | > 16 µg/mL | > 16 µg/mL | > 16 µg/mL | > 16 µg/mL | > 16 µg/mL | > 16 µg/mL | > 16 µg/mL
CCn1cc(C(=O)O)c(=O)c2cc(F)c(N3CC(C)(N)C3)cc21 | 0.5 µg/mL (≈ 1.57 µM) | 0.5 µg/mL (≈ 1.57 µM) | 1 µg/mL (≈ 3.13 µM) | 0.5 µg/mL (≈ 1.57 µM) | 2 µg/mL (≈ 6.26 µM) | 1 µg/mL (≈ 3.13 µM) | 0.25 µg/mL (≈ 0.783 µM) | 0.25 µg/mL (≈ 0.783 µM) | 0.5 µg/mL (≈ 1.57 µM) | 0.25 µg/mL (≈ 0.783 µM) | 0.5 µg/mL (≈ 1.57 µM)
NC1CN(c2cc3c(cc2F)c(=O)c2c(=O)[nH]sc2n3C2CC2)C1 | 0.03 µg/mL (≈ 0.0866 µM) | 0.06 µg/mL (≈ 0.173 µM) | 0.12 µg/mL (≈ 0.346 µM) | 0.03 µg/mL (≈ 0.0866 µM) | 0.25 µg/mL (≈ 0.722 µM) | 0.06 µg/mL (≈ 0.173 µM) | 0.015 µg/mL (≈ 0.0433 µM) | 0.03 µg/mL (≈ 0.0866 µM) | 0.06 µg/mL (≈ 0.173 µM) | 0.12 µg/mL (≈ 0.346 µM) | 0.007 µg/mL (≈ 0.0202 µM)
Nc1c(F)c(N2CC(N)C2)c(F)c2c1c(=O)c(C(=O)O)cn2-c1ccc(F)cc1F | 0.015 µg/mL (≈ 0.0355 µM) | 0.03 µg/mL (≈ 0.071 µM) | 0.12 µg/mL (≈ 0.284 µM) | 0.06 µg/mL (≈ 0.142 µM) | 0.12 µg/mL (≈ 0.284 µM) | 0.06 µg/mL (≈ 0.142 µM) | 0.03 µg/mL (≈ 0.071 µM) | 0.015 µg/mL (≈ 0.0355 µM) | 0.06 µg/mL (≈ 0.142 µM) | 0.06 µg/mL (≈ 0.142 µM) | 0.015 µg/mL (≈ 0.0355 µM)
CC1(N)CN(c2c(F)c(N)c3c(=O)c(C(=O)O)cn(-c4ccc(F)cc4F)c3c2F)C1 | 0.06 µg/mL (≈ 0.137 µM) | 0.06 µg/mL (≈ 0.137 µM) | 0.25 µg/mL (≈ 0.573 µM) | 0.25 µg/mL (≈ 0.573 µM) | 0.5 µg/mL (≈ 1.15 µM) | 0.06 µg/mL (≈ 0.137 µM) | 0.12 µg/mL (≈ 0.275 µM) | 0.06 µg/mL (≈ 0.137 µM) | 0.06 µg/mL (≈ 0.137 µM) | 0.03 µg/mL (≈ 0.0687 µM) | 0.12 µg/mL (≈ 0.275 µM)
CN(C)C1CN(c2nc3c(cc2F)c(=O)c(C(=O)O)cn3C2CC2)C1 | 0.12 µg/mL (≈ 0.346 µM) | 0.25 µg/mL (≈ 0.722 µM) | 0.12 µg/mL (≈ 0.346 µM) | 0.12 µg/mL (≈ 0.346 µM) | 2 µg/mL (≈ 5.77 µM) | 0.12 µg/mL (≈ 0.346 µM) | 0.12 µg/mL (≈ 0.346 µM) | 0.015 µg/mL (≈ 0.0433 µM) | 0.12 µg/mL (≈ 0.346 µM) | 2 µg/mL (≈ 5.77 µM) | 0.06 µg/mL (≈ 0.173 µM)
